# Laboratory results reported in patent US11780841B2, “3,6-methano-1H-pyrrolo[3,2-b]pyridine and 3,6-methano-1H-pyrrolo[3,2-c]pyridine compounds and medicaments using same” (priority 2018, dated 2023).
# System: recombinant rabies virus 1088 strain expressing Gaussia Luciferase (GLuc) (1088/GLuc)
# Assay type: cell-based
# Conditions: read-out: Anti-rabies activity
row,SMILES,IC50 [µM]
1,O=C(O)CCN1C[C@H]2C[C@]3(C(=O)NCCO)NC[C@H]2[C@H]1[C@H]3Cc1cccc2ccccc12 [IF-452],10 to 30
2,CC(C)CNC(=O)[C@@]12C[C@@H]3CN(CCC(=O)O)[C@@H]([C@@H]3CN1)[C@H]2CCc1ccccc1 [IF-454],10 to 30
3,CC(C)CNC(=O)[C@@]12C[C@@H]3CN(CCC(=O)O)[C@@H]([C@@H]3CN1)[C@H]2Cc1ccc(O)cc1 [IF-455],10 to 30
4,CC(C)CC[C@@H]1[C@@H]2[C@@H]3CN[C@@]1(C(=O)NCc1ccc(O)cc1)C[C@@H]3CN2CCC(=O)O [IF-458],10 to 30
5,CC(C)CCN1C[C@H]2C[C@]3(C(=O)NCc4ccc(O)cc4)NC[C@H]2[C@H]1[C@H]3CCc1ccccc1 [IF-464],10 to 30
6,CC(C)CCN1C[C@H]2C[C@]3(C(=O)NCc4ccc(O)cc4)NC[C@H]2[C@H]1[C@H]3Cc1cccc2ccccc12 [IF-465],10 to 30
7,CC(C)CCN1C[C@H]2C[C@]3(C(=O)NCc4ccc(O)cc4)NC[C@H]2[C@H]1[C@H]3Cc1ccccc1 [IF-466],10 to 30
8,CC(C)CC[C@@H]1[C@@H]2[C@@H]3CN[C@@]1(C(=O)NCc1ccc(O)cc1)C[C@@H]3CN2CCc1ccccc1 [IF-468],10 to 30
9,O=C(NCc1ccc(O)cc1)[C@@]12C[C@@H]3CN(CCc4ccccc4)[C@@H]([C@@H]3CN1)[C@H]2Cc1ccccc1 [IF-469],10 to 30
10,CC(C)C[C@@H]1[C@@H]2[C@@H]3CN[C@@]1(C(=O)NCc1ccc(O)cc1)C[C@@H]3CN2CCc1ccccc1 [IF-470],10 to 30
11,O=C(NCc1ccc(O)cc1)[C@@]12C[C@@H]3CN(Cc4cccc5ccccc45)[C@@H]([C@@H]3CN1)[C@H]2Cc1ccccc1 [IF-472],< 5
12,CC(C)C[C@@H]1[C@@H]2[C@@H]3CN[C@@]1(C(=O)NCc1ccc(O)cc1)C[C@@H]3CN2Cc1cccc2ccccc12 [IF-473],< 5
13,CC(C)CC[C@@H]1[C@@H]2[C@@H]3CN[C@@]1(C(=O)NCc1ccc(O)cc1)C[C@@H]3CN2CC1CCCCC1 [IF-474],< 5
14,O=C(NCc1ccc(O)cc1)[C@@]12C[C@@H]3CN(CC4CCCCC4)[C@@H]([C@@H]3CN1)[C@H]2CCc1ccccc1 [IF-475],10 to 30
15,O=C(NCc1ccc(O)cc1)[C@@]12C[C@@H]3CN(CC4CCCCC4)[C@@H]([C@@H]3CN1)[C@H]2Cc1ccccc1 [IF-477],< 5
16,CC(C)C[C@@H]1[C@@H]2[C@@H]3CN[C@@]1(C(=O)NCc1ccc(O)cc1)C[C@@H]3CN2CC1CCCCC1 [IF-478],< 5
17,CC(C)CC[C@@H]1[C@@H]2[C@@H]3CN[C@@]1(C(=O)NCc1ccc(O)cc1)C[C@@H]3CN2Cc1ccc(F)cc1 [IF-479],< 5
18,O=C(NCc1ccc(O)cc1)[C@@]12C[C@@H]3CN(Cc4ccc(F)cc4)[C@@H]([C@@H]3CN1)[C@H]2Cc1ccccc1 [IF-481],10 to 30
19,CC(C)C[C@@H]1[C@@H]2[C@@H]3CN[C@@]1(C(=O)NCc1ccc(O)cc1)C[C@@H]3CN2Cc1ccc(F)cc1 [IF-482],10 to 30
20,O=C(NCCO)[C@@]12C[C@@H]3CN(CC4CCCCC4)[C@@H]([C@@H]3CN1)[C@H]2Cc1ccccc1 [IF-486],10 to 30
21,CC(C)CC[C@@H]1[C@@H]2[C@@H]3CN[C@@]1(C(=O)NCCO)C[C@@H]3CN2Cc1ccc(F)cc1 [IF-490],10 to 30
22,CC(C)CC[C@@H]1[C@@H]2[C@@H]3CN[C@@]1(C(=O)NCc1ccc(O)cc1)C[C@@H]3CN2Cc1ccccc1 [IF-493],< 5
23,O=C(NCc1ccc(O)cc1)[C@@]12C[C@@H]3CN(Cc4ccccc4)[C@@H]([C@@H]3CN1)[C@H]2Cc1ccccc1 [IF-494],10 to 30

row,SMILES,IC50 [µM]
1,CC(C)CN1C[C@H]2C[C@]3(C(=O)NCc4ccc(O)cc4)NC[C@H]2[C@H]1[C@H]3Cc1cccc2ccccc12 [IF-500],10 to 30
2,CC(C)CC[C@@H]1[C@@H]2[C@@H]3CN[C@@]1(C(=O)NC(C)C)C[C@@H]3CN2Cc1ccc(O)cc1 [IF-503],< 5
3,CC(C)NC(=O)[C@@]12C[C@@H]3CN(Cc4ccc(O)cc4)[C@@H]([C@@H]3CN1)[C@H]2Cc1cccc2ccccc12 [IF-504],10 to 30
4,NC(=O)CCNC(=O)[C@@]12C[C@@H]3CN(CC4CCCCC4)[C@@H]([C@@H]3CN1)[C@H]2Cc1cccc2ccccc12 [IF-536],< 5
5,NC(=O)CCNC(=O)[C@@]12C[C@@H]3CN(Cc4ccc(F)cc4)[C@@H]([C@@H]3CN1)[C@H]2Cc1cccc2ccccc12 [IF-539],< 5
6,O=C(NCCc1ccccc1)[C@@]12C[C@@H]3CN(Cc4ccc(O)cc4)[C@@H]([C@@H]3CN1)[C@H]2Cc1cccc2ccccc12 [IF-580],10 to 30
7,CC(C)NC(=O)[C@@]12C[C@@H]3CN(Cc4cccc5ccccc45)[C@@H]([C@@H]3CN1)[C@H]2Cc1cccc2ccccc12 [IF-596],10 to 30
8,O=C(NCCO)[C@@]12C[C@@H]3CN(Cc4cccc5ccccc45)[C@@H]([C@@H]3CN1)[C@H]2Cc1ccccc1 [IF-603],10 to 30
9,CC(C)C[C@@H]1[C@@H]2[C@@H]3CN[C@@]1(C(=O)NCCO)C[C@@H]3CN2Cc1cccc2ccccc12 [IF-604],10 to 30
10,CC(C)C[C@@H]1[C@@H]2[C@@H]3CN[C@@]1(C(=O)NCCO)C[C@@H]3CN2CC1CCCCC1 [IF-606],10 to 30
11,O=C(NCCc1ccccc1)[C@@]12C[C@@H]3CN(CCO)[C@@H]([C@@H]3CN1)[C@H]2Cc1cccc2ccccc12 [IF-610],10 to 30
12,CC(C)CCN1C[C@H]2C[C@]3(C(=O)NCCO)NC[C@H]2[C@H]1[C@H]3Cc1cccc2ccccc12 [IF-611],10 to 30
13,O=C(NCCO)[C@@]12C[C@@H]3CN(CCc4ccccc4)[C@@H]([C@@H]3CN1)[C@H]2Cc1cccc2ccccc12 [IF-612],10 to 30
14,CC(C)CC[C@@H]1[C@@H]2[C@@H]3CN[C@@]1(C(=O)NCCO)C[C@@H]3CN2Cc1cccc2ccccc12 [IF-613],10 to 30
15,O=C(NCCO)[C@@]12C[C@@H]3CN(Cc4cccc5ccccc45)[C@@H]([C@@H]3CN1)[C@H]2Cc1cccc2ccccc12 [IF-614],10 to 30
16,O=C(NCCO)[C@@]12C[C@@H]3CN(CC4CCCCC4)[C@@H]([C@@H]3CN1)[C@H]2Cc1cccc2ccccc12 [IF-619],10 to 30
17,O=C(NCCO)[C@@]12C[C@@H]3CN(Cc4ccc(F)cc4)[C@@H]([C@@H]3CN1)[C@H]2Cc1cccc2ccccc12 [IF-620],< 5
18,O=C(NCCO)[C@@]12C[C@@H]3CN(Cc4ccccc4)[C@@H]([C@@H]3CN1)[C@H]2Cc1cccc2ccccc12 [IF-624],10 to 30
19,CC(C)CCN1C[C@H]2C[C@]3(C(=O)NCC(C)C)NC[C@H]2[C@H]1[C@H]3CCc1ccccc1 [IF-635],10 to 30
20,CC(C)C[C@@H]1[C@@H]2[C@@H]3CN[C@@]1(C(=O)NCc1ccccc1)C[C@@H]3CN2CCc1ccccc1 [IF-639],< 5
21,O=C(NCc1ccccc1)[C@@]12C[C@@H]3CN(CCc4ccccc4)[C@@H]([C@@H]3CN1)[C@H]2Cc1ccc(O)cc1 [IF-640],10 to 30
22,CC(C)CNC(=O)[C@@]12C[C@@H]3CN(CCc4ccccc4)[C@@H]([C@@H]3CN1)[C@H]2Cc1ccccc1 [IF-641],< 5
23,CC(C)C[C@@H]1[C@@H]2[C@@H]3CN[C@@]1(C(=O)NCc1ccccc1)C[C@@H]3CN2CC1CCCCC1 [IF-644],< 5

row,SMILES,IC50 [µM]
1,O=C(NCc1ccccc1)[C@@]12C[C@@H]3CN(CC4CCCCC4)[C@@H]([C@@H]3CN1)[C@H]2Cc1ccc(O)cc1 [IF-645],10 to 30
2,CC(C)CNC(=O)[C@@]12C[C@@H]3CN(CC4CCCCC4)[C@@H]([C@@H]3CN1)[C@H]2Cc1cccc2ccccc12 [IF-646],< 5
3,O=C(NCc1ccccc1)[C@@]12C[C@@H]3CN(Cc4ccc(F)cc4)[C@@H]([C@@H]3CN1)[C@H]2Cc1ccccc1 [IF-649],< 5
4,CC(C)C[C@@H]1[C@@H]2[C@@H]3CN[C@@]1(C(=O)NCc1ccccc1)C[C@@H]3CN2Cc1ccc(F)cc1 [IF-650],< 5
5,CC(C)CNC(=O)[C@@]12C[C@@H]3CN(Cc4ccc(F)cc4)[C@@H]([C@@H]3CN1)[C@H]2CCc1ccccc1 [IF-652],< 5
6,CC(C)CNC(=O)[C@@]12C[C@@H]3CN(Cc4ccc(F)cc4)[C@@H]([C@@H]3CN1)[C@H]2Cc1ccccc1 [IF-653],10 to 30
7,CC(C)CNC(=O)[C@@]12C[C@@H]3CN(Cc4ccc(F)cc4)[C@@H]([C@@H]3CN1)[C@H]2CC(C)C [IF-654],< 5
8,CC(C)CCNC(=O)[C@@]12C[C@@H]3CN(CCO)[C@@H]([C@@H]3CN1)[C@H]2Cc1ccccc1 [IF-656],10 to 30
9,CC(C)CCNC(=O)[C@@]12C[C@@H]3CN(CCc4ccccc4)[C@@H]([C@@H]3CN1)[C@H]2CC(C)C [IF-657],< 5
10,CC(C)CCNC(=O)[C@@]12C[C@@H]3CN(CC4CCCCC4)[C@@H]([C@@H]3CN1)[C@H]2Cc1ccccc1 [IF-658],< 5
11,CC(C)CCNC(=O)[C@@]12C[C@@H]3CN(CC4CCCCC4)[C@@H]([C@@H]3CN1)[C@H]2CC(C)C [IF-659],10 to 30
12,CC(C)CCNC(=O)[C@@]12C[C@@H]3CN(CCO)[C@@H]([C@@H]3CN1)[C@H]2Cc1cccc2ccccc12 [IF-660],10 to 30
13,CC(C)CCNC(=O)[C@@]12C[C@@H]3CN(Cc4ccccc4)[C@@H]([C@@H]3CN1)[C@H]2Cc1ccccc1 [IF-665],< 5
14,CC(C)CNC(=O)[C@@]12C[C@@H]3CN(Cc4ccccc4)[C@@H]([C@@H]3CN1)[C@H]2CCc1ccccc1 [IF-670],< 5
15,CC(C)CCNC(=O)[C@@]12C[C@@H]3CN(CC(C)C)[C@@H]([C@@H]3CN1)[C@H]2CCc1ccccc1 [IF-673],< 5
16,CC(C)CCNC(=O)[C@@]12C[C@@H]3CN(CC(C)C)[C@@H]([C@@H]3CN1)[C@H]2Cc1cccc2ccccc12 [IF-674],10 to 30
17,CC(C)CC[C@@H]1[C@@H]2[C@@H]3CN[C@@]1(C(=O)NCc1ccccc1)C[C@@H]3CN2CC(C)C [IF-675],< 5
18,CC(C)CNC(=O)[C@@]12C[C@@H]3CN(CC(C)C)[C@@H]([C@@H]3CN1)[C@H]2CCc1ccccc1 [IF-679],< 5
19,CC(C)CNC(=O)[C@@]12C[C@@H]3CN(CC(C)C)[C@@H]([C@@H]3CN1)[C@H]2Cc1cccc2ccccc12 [IF-680],10 to 30
20,CC(C)CCNC(=O)[C@@]12C[C@@H]3CN(Cc4ccc(O)cc4)[C@@H]([C@@H]3CN1)[C@H]2Cc1cccc2ccccc12 [IF-684],10 to 30
21,CC(C)CCNC(=O)[C@@]12C[C@@H]3CN(Cc4ccccc4)[C@@H]([C@@H]3CN1)[C@H]2CC(C)C [IF-691],10 to 30
